Common to all, as to type: cell-based
In assay [1] the target is T1, hP2X4 (Homo sapiens, UniProt Q99571).
T1 construct: expressed in transfected cells
T1 sequence (Q99571 1-388): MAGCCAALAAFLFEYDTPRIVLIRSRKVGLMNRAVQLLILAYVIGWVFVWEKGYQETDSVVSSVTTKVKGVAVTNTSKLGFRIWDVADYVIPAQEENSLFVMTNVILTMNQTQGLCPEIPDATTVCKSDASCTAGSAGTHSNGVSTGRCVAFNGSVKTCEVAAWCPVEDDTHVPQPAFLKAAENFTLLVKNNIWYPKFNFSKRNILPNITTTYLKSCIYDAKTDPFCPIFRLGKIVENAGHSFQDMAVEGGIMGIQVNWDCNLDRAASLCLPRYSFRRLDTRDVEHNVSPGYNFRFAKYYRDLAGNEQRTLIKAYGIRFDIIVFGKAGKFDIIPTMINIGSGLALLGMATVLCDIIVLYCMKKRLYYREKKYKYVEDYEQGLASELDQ
Briefly: Fura-2 AM [Ca2+]i assay on 1321N1-hP2X4 cells. The note with it: used for fitting; Figure S1 A,B: 1321N1-hP2X4 and HEK293-hP2X4; read-out: ATP EC50.
Method: One day prior to measurements, 1321N1-hP2X4 cells were plated onto poly-D-lysine-coated 96-well plates at 2 × 10^4 cells/well. After 24 h, the cells were loaded for 1 h at 37 °C with 2 μM Fura-2 AM in Hank’s Balanced Salt Solution (HBSS, Gibco). The Fura-2 loading buffer dye was removed; then the cells were incubated in 80 μL of Etotal buffer, containing (in mM) 145 NaCl, 5 KCl, 1 MgCl2, 2 CaCl2, 13 D-glucose, 10 HEPES; pH 7.33. […] The injection volume was 10 μL with 150 μL pipette height and rate of 4 (∼62 μL/s). The run time was 300 s with 3.5 s intervals and 3 reads/well. The change in [Ca^2+]i concentration was calculated as the ratio of Fura-2 intensities at 520 emission from excitation at 340 and 380 nm (F ratio).

The target of the next assay is T2, hP2X7 (Homo sapiens, UniProt Q99572).
T2 construct: expressed in transfected cells
T2 sequence (Q99572 1-595): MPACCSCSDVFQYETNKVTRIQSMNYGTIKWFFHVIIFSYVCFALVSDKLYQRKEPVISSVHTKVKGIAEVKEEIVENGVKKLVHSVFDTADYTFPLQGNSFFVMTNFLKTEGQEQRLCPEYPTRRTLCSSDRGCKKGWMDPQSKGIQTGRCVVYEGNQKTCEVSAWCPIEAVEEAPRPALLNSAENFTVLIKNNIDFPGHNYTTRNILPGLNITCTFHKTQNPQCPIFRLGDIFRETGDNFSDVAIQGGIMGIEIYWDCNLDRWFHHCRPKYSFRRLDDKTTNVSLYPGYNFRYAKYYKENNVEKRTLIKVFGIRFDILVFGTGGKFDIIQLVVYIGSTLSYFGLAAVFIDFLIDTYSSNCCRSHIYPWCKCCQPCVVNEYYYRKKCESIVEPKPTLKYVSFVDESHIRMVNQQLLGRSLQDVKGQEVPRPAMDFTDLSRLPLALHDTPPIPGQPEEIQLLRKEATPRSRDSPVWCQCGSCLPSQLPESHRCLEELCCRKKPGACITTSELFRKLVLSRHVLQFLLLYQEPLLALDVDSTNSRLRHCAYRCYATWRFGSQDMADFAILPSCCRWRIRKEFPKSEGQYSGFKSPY
Briefly: YOPRO-1 dye uptake assay on HEK293-hP2X7 cells. Conditions: used for fitting; Figure S1C: HEK293-hP2X7; read-out: ATP EC50. As to the method:
(§1) This method was adapted and further optimized from Patrice et al.[50] One day prior to measurements, HEK293-hP2X4 and HEK293-hP2X7 cells were plated on poly-D-lysine-coated 96-well plates at 2 × 10^4 cells/well. After 24 h, the culture media was aspirated, and 80 μL of YOPRO-1 assay buffer (145 mM NaCl, 5 mM KCl, 0.1 mM CaCl2, 13 mM D-glucose, 10 mM HEPES; pH 7.35) with 2 μM YOPRO-1 was applied. […] The injection volume was 10 μL with a 150 μL pipet height and rate of 4 (∼62 μL/s). The run time was 300 s with a 3.9 s interval, 6 reads/well, and 77 reads in total. Measurement parameters were as follows: bottom reading, excitation wavelength (490 nm), emission wavelength (520 nm).

The target in assay [2] is T1, hP2X4. Briefly: YOPRO-1 dye uptake assay on HEK293-hP2X4 cells. The method, then:
as §1

Take `Nc1ncnc2c1ncn2[C@@H]1O[C@H](COP(=O)(O)OP(=O)(O)OP(=O)(O)O)[C@@H](O)[C@H]1O` [ATP]: the EC50 (commonly the midpoint of the concentration-response curve) on hP2X4 [1] was determined as 1600 nM; at hP2X7, 300 µM.
For the compound `CC(C)c1cc(Br)c(NC(=O)Nc2cccnc2)c(Br)c1` [BX430], the inhibition (in general, the share of the control response that was lost under treatment) at 10 µM against hP2X4 [2] (10 μM, hP2X4, cell line not stated) worked out at 75%. The “Normalised Mean” value at hP2X4 [2] (AUC signal normalised to positive control (10 µM ATP) = 1.0, HEK293-hP2X4) was 1.05.

Values taken from PMC7123434, “Development of High-Throughput Fluorescent-Based Screens to Accelerate Discovery of P2X Inhibitors from Animal Venoms” (Journal of Natural Products, 2019).
